Data as given in PubChem BioAssay AID2060505 (Molecular Pharmacology Branch, DTP, NCI, 2025).

Tested on: 633275-114-R-J1-PDC complex spheroids, viability
Experiment: Anticancer human tumor 633275-114-R-J1-PDC patient-derived endometrial adenocarcinoma cell line growth inhibition [GQUAD]
Conditions: for IC50: curve of first compound; for viability, T/C: stronger effect = lower value
In short: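 Tumor cells were grown as complex spheroids with HUVEC endothelial cells and mesenchymal stem cells as stroma. G-quadruplex stabilizers were combined with targeted agents over half-log dilutions from near the clinical Cmax, or from 10 microM.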

[1] = second compound 0.0316 µM, first compound 0.000999 µM
[2] = second compound 0.0316 µM, first compound 0.00316 µM
[3] = second compound 0.0316 µM, first compound 0.00999 µM
[4] = second compound 0.0316 µM, first compound 0.0316 µM
[5] = second compound 0.0316 µM, first compound 0.0999 µM
[6] = second compound 0.0316 µM, first compound 0.316 µM
[7] = second compound 0.1 µM, first compound 0.000999 µM
[8] = second compound 0.1 µM, first compound 0.00316 µM
[9] = second compound 0.1 µM, first compound 0.00999 µM
[10] = second compound 0.1 µM, first compound 0.0316 µM
[11] = second compound 0.1 µM, first compound 0.0999 µM
[12] = second compound 0.1 µM, first compound 0.316 µM
[13] = second compound 0.316 µM, first compound 0.000999 µM
[14] = second compound 0.316 µM, first compound 0.00316 µM
[15] = second compound 0.316 µM, first compound 0.00999 µM
[16] = second compound 0.316 µM, first compound 0.0316 µM
[17] = second compound 0.316 µM, first compound 0.0999 µM
[18] = second compound 0.316 µM, first compound 0.316 µM
[19] = second compound 1 µM, first compound 0.000999 µM
[20] = second compound 1 µM, first compound 0.00316 µM
[21] = second compound 1 µM, first compound 0.00999 µM
[22] = second compound 1 µM, first compound 0.0316 µM
[23] = second compound 1 µM, first compound 0.0999 µM
[24] = second compound 1 µM, first compound 0.316 µM
[25] = second compound 3.16 µM, first compound 0.000999 µM
[26] = second compound 3.16 µM, first compound 0.00316 µM
[27] = second compound 3.16 µM, first compound 0.00999 µM
[28] = second compound 3.16 µM, first compound 0.0316 µM
[29] = second compound 3.16 µM, first compound 0.0999 µM
[30] = second compound 3.16 µM, first compound 0.316 µM
[31] = second compound 10 µM, first compound 0.000999 µM
[32] = second compound 10 µM, first compound 0.00316 µM
[33] = second compound 10 µM, first compound 0.00999 µM
[34] = second compound 10 µM, first compound 0.0316 µM
[35] = second compound 10 µM, first compound 0.0999 µM
[36] = second compound 10 µM, first compound 0.316 µM
[37] = second compound 0.0316 µM, first compound 0.1 µM
[38] = second compound 0.0316 µM, first compound 1 µM
[39] = second compound 0.0316 µM, first compound 3.16 µM
[40] = second compound 0.0316 µM, first compound 10 µM
[41] = second compound 0.1 µM, first compound 0.1 µM
[42] = second compound 0.1 µM, first compound 1 µM
[43] = second compound 0.1 µM, first compound 3.16 µM
[44] = second compound 0.1 µM, first compound 10 µM
[45] = second compound 0.316 µM, first compound 0.1 µM
[46] = second compound 0.316 µM, first compound 1 µM
[47] = second compound 0.316 µM, first compound 3.16 µM
[48] = second compound 0.316 µM, first compound 10 µM
[49] = second compound 1 µM, first compound 0.1 µM
[50] = second compound 1 µM, first compound 1 µM
[51] = second compound 1 µM, first compound 3.16 µM
[52] = second compound 1 µM, first compound 10 µM
[53] = second compound 3.16 µM, first compound 0.1 µM
[54] = second compound 3.16 µM, first compound 1 µM
[55] = second compound 3.16 µM, first compound 3.16 µM
[56] = second compound 3.16 µM, first compound 10 µM
[57] = second compound 10 µM, first compound 0.1 µM
[58] = second compound 10 µM, first compound 1 µM
[59] = second compound 10 µM, first compound 3.16 µM
[60] = second compound 10 µM, first compound 10 µM
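Note: spheroids exposed to the agents for seven days.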
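Throughout, for viability, T/C: percent of DMSO vehicle control viability which is 100%.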

With `CC[C@@]1(O)C(=O)OCc2c1cc1n(c2=O)Cc2cc3c(CN(C)C)c(O)ccc3nc2-1` + Cc1[nH]c2ccc(F)cc2c1-c1nc2c3cccnc3c3ncccc3c2[nH]1 the IC50 (second compound 0.0316 µM) was 79.9 nM, the IC50 (second compound 0.1 µM) was 83.9 nM and the IC50 (second compound 0.316 µM) was 74.4 nM. For the same compound, the IC50 (second compound 1 µM) was 73.1 nM, the IC50 (second compound 3.16 µM) was 46.3 nM and the IC50 (second compound 10 µM) was 43.4 nM. For the same compound, the viability, T/C [1] was 98.6%, the viability, T/C [2] was 91.9% and the viability, T/C [3] was 86.8%. It also gave a viability, T/C [4] of 69.6%, a viability, T/C [5] of 43.9% and a viability, T/C [6] of 36.9%. The viability, T/C [7] was 93.8%, the viability, T/C [8] was 93.6% and the viability, T/C [9] was 87.7%. The viability, T/C [10] was 73.4%, the viability, T/C [11] was 45.3% and the viability, T/C [12] was 35.8%. For the same compound, the viability, T/C [13] was 94%, the viability, T/C [14] was 99.1% and the viability, T/C [15] was 88.2%. The viability, T/C [16] was 71.2%, the viability, T/C [17] was 41.8% and the viability, T/C [18] was 36.5%. It also gave a viability, T/C [19] of 90.4%, a viability, T/C [20] of 91.8% and a viability, T/C [21] of 79.3%. It also gave a viability, T/C [22] of 68%, a viability, T/C [23] of 41.9% and a viability, T/C [24] of 36.3%. For the same compound, the viability, T/C [25] was 71.7%, the viability, T/C [26] was 70.4% and the viability, T/C [27] was 69.1%. The viability, T/C [28] was 56.5%, the viability, T/C [29] was 37.1% and the viability, T/C [30] was 33.2%. The viability, T/C [31] was 66.5%, the viability, T/C [32] was 74.4% and the viability, T/C [33] was 71%. The viability, T/C [34] was 54.6%, the viability, T/C [35] was 36.5% and the viability, T/C [36] was 29.7%.
`CCc1c2c(nc3ccc(O)cc13)-c1cc3c(c(=O)n1C2)COC(=O)[C@]3(O)CC` + CN(C)c1ccc(Nc2c3ccc(NC(=O)CCN4CCCC4)cc3nc3cc(NC(=O)CCN4CCCC4)ccc23)cc1 gave an IC50 (second compound 0.0316 µM) of 2.92 nM, an IC50 (second compound 0.1 µM) of 2.72 nM and an IC50 (second compound 0.316 µM) of 3.31 nM. For the same compound, the IC50 (second compound 1 µM) was 2.76 nM, the IC50 (second compound 3.16 µM) was 2.01 nM and the IC50 (second compound 10 µM) was less than 0.999 nM. The viability, T/C [1] was 82.3%, the viability, T/C [2] was 46.1% and the viability, T/C [3] was 34.6%. The viability, T/C [4] was 35.3%, the viability, T/C [5] was 26.1% and the viability, T/C [6] was 25.2%. For the same compound, the viability, T/C [7] was 77.6%, the viability, T/C [8] was 44.2% and the viability, T/C [9] was 36.1%. The viability, T/C [10] was 32%, the viability, T/C [11] was 30.2% and the viability, T/C [12] was 25.6%. The viability, T/C [13] was 73%, the viability, T/C [14] was 48.2% and the viability, T/C [15] was 38.1%. The viability, T/C [16] was 35.3%, the viability, T/C [17] was 29.4% and the viability, T/C [18] was 23.9%. For the same compound, the viability, T/C [19] was 68.4%, the viability, T/C [20] was 43.1% and the viability, T/C [21] was 40.3%. The viability, T/C [22] was 29.3%, the viability, T/C [23] was 23.9% and the viability, T/C [24] was 21.6%. It also gave a viability, T/C [25] of 60.8%, a viability, T/C [26] of 41.8% and a viability, T/C [27] of 34.9%. It also gave a viability, T/C [28] of 28.1%, a viability, T/C [29] of 23.5% and a viability, T/C [30] of 22.6%. It also gave a viability, T/C [31] of 31%, a viability, T/C [32] of 16% and a viability, T/C [33] of 15.7%. For the same compound, the viability, T/C [34] was 13.9%, the viability, T/C [35] was 15.6% and the viability, T/C [36] was 11.5%.
`CC1COCCN1c1cc(C2(O)CC3CCC(C2)O3)c2cnn(-c3ccn[nH]3)c2n1` (stereo not drawn) + CN(C)c1ccc(Nc2c3ccc(NC(=O)CCN4CCCC4)cc3nc3cc(NC(=O)CCN4CCCC4)ccc23)cc1 was tested, and the IC50 (second compound 0.0316 µM) was 93.5 nM, the IC50 (second compound 0.1 µM) was 92.7 nM and the IC50 (second compound 0.316 µM) was 105 nM. It also gave an IC50 (second compound 1 µM) of 65.3 nM, an IC50 (second compound 3.16 µM) of 53.2 nM and an IC50 (second compound 10 µM) of less than 31.6 nM. It also gave a viability, T/C [4] of 73.6%, a viability, T/C [37] of 48.9% and a viability, T/C [6] of 28.7%. For the same compound, the viability, T/C [38] was 18.4%, the viability, T/C [39] was 13.6% and the viability, T/C [40] was 9.33%. The viability, T/C [10] was 79.9%, the viability, T/C [41] was 46.5% and the viability, T/C [12] was 30.2%. The viability, T/C [42] was 19.8%, the viability, T/C [43] was 15.4% and the viability, T/C [44] was 9.07%. For the same compound, the viability, T/C [16] was 70.7%, the viability, T/C [45] was 50.7% and the viability, T/C [18] was 33.1%. The viability, T/C [46] was 19.2%, the viability, T/C [47] was 15.8% and the viability, T/C [48] was 10.4%. The viability, T/C [22] was 62.7%, the viability, T/C [49] was 41.7% and the viability, T/C [24] was 30.4%. For the same compound, the viability, T/C [50] was 19.8%, the viability, T/C [51] was 14.4% and the viability, T/C [52] was 9.06%. It also gave a viability, T/C [28] of 58.8%, a viability, T/C [53] of 39% and a viability, T/C [30] of 26.7%. It also gave a viability, T/C [54] of 15.3%, a viability, T/C [55] of 12% and a viability, T/C [56] of 8.3%. The viability, T/C [34] was 29.2%, the viability, T/C [57] was 23.9% and the viability, T/C [36] was 17%. For the same compound, the viability, T/C [58] was 10.9%, the viability, T/C [59] was 8.55% and the viability, T/C [60] was 4.92%.
`CC(=O)O[C@H]1C(=O)[C@@]2(C)[C@H]([C@H](OC(=O)c3ccccc3)[C@]3(O)C[C@H](OC(=O)[C@H](O)[C@@H](NC(=O)c4ccccc4)c4ccccc4)C(C)=C1C3(C)C)[C@]1(OC(C)=O)CO[C@@H]1C[C@@H]2O` + CN(C)c1ccc(Nc2c3ccc(NC(=O)CCN4CCCC4)cc3nc3cc(NC(=O)CCN4CCCC4)ccc23)cc1 was tested, and the IC50 (second compound 0.0316 µM) was less than 31.6 nM, the IC50 (second compound 0.1 µM) was less than 31.6 nM and the IC50 (second compound 0.316 µM) was less than 31.6 nM. It also gave an IC50 (second compound 1 µM) of less than 31.6 nM, an IC50 (second compound 3.16 µM) of less than 31.6 nM and an IC50 (second compound 10 µM) of less than 31.6 nM. The viability, T/C [4] was 48.9%, the viability, T/C [37] was 26.1% and the viability, T/C [6] was 18.4%. For the same compound, the viability, T/C [38] was 22.6%, the viability, T/C [39] was 20.9% and the viability, T/C [40] was 22.7%. For the same compound, the viability, T/C [10] was 48.3%, the viability, T/C [41] was 27.3% and the viability, T/C [12] was 21.6%. The viability, T/C [42] was 18.9%, the viability, T/C [43] was 20.5% and the viability, T/C [44] was 23.5%. For the same compound, the viability, T/C [16] was 46.4%, the viability, T/C [45] was 23.6% and the viability, T/C [18] was 21.2%. It also gave a viability, T/C [46] of 19.1%, a viability, T/C [47] of 20.7% and a viability, T/C [48] of 20.4%. It also gave a viability, T/C [22] of 45.9%, a viability, T/C [49] of 25.5% and a viability, T/C [24] of 17.5%. The viability, T/C [50] was 18.8%, the viability, T/C [51] was 22.4% and the viability, T/C [52] was 20.8%. The viability, T/C [28] was 41.4%, the viability, T/C [53] was 22.8% and the viability, T/C [30] was 20.4%. The viability, T/C [54] was 21.3%, the viability, T/C [55] was 19.6% and the viability, T/C [56] was 19.8%. The viability, T/C [34] was 23.8%, the viability, T/C [57] was 15.3% and the viability, T/C [36] was 13.8%. It also gave a viability, T/C [58] of 11.8%, a viability, T/C [59] of 15.2% and a viability, T/C [60] of 12.9%.
